In patent US9598407B2, “Antibacterial piperidinyl substituted 3,4-dihydro-1H-[1,8]naphthyridinones” (JANSSEN SCIENCES IRELAND UC, priority 2011, dated 2017):

Assays:
[1] = target: S. aureus ATCC 29213 FabI (Staphylococcus aureus (strain MRSA252), UniProt Q6GI75); experiment: Staphylococcus aureus FabI enzyme inhibition assay; format: biochemical; conditions: 30 minutes at room temperature, pH 6.5
Description: D.1 FabI Enzyme Inhibition: Staphylococcus aureus FabI Enzyme Inhibition Assay
FabI enzyme inhibition assays were carried out in half-area, 384-well microtitre plates. Compounds were evaluated in 40-μl assay mixtures containing 100 mM NaADA, pH 6.5 (ADA=N-[2-acetamido]-2iminodiacetic acid), 250 μM crotonoyl-CoA, 625 μM NADH and 50 μg/ml S. aureus ATCC 29213 FabI Inhibitors were typically varied over the range of 50 to 0.39 μM. The reaction mixtures were incubated for 30 minutes at room temperature and the reaction was stopped by adding 200 mM Tris buffer (pH 9.0) to create a pH-shift. The consumption of NADH was monitored by measuring the change in absorbance at […]. By comparing sample readings to those of negative (absence of compound) and positive (absence of enzyme) controls, the percent inhibition of enzymatic activity of the compounds was determined A best-fit curve is fitted by a minimum of squares method. From this an IC50-value (expressed in μg/ml), resulting in 50% inhibition of enzymatic activity, was obtained.

[2] = system: Staphylococcus aureus ATCC 29213; experiment: Antibacterial susceptibility testing, IC90 determination (STA 361.159); format: cell-based; conditions: STA ATCC 29213; 90% inhibitory concentration for bacterial growth
Description: D.2 In Vitro Method for Testing Compounds for Antibacterial Activity Against Various Bacterial Strains Preparation of Bacterial Suspensions for Susceptibility Testing
(§1) The following bacteria were used: Staphylococcus aureus ATCC 29213, methicillin-resistant Staphylococcus aureus (MRSA) ATCC 700788 and Escherichia coli ATCC 35218. The bacteria used in this study were grown overnight in flasks containing 100 ml Mueller-Hinton broth (Difco cat. nr. 0757-17) in sterile de-ionized water, with shaking, at 37° C. Stocks were store at −70° C. until use.
(§2) Bacteria were incubated on a tryptic soy agar plate containing 5% sheep blood (Becton Dickinson cat. nr. 254053) for 18-24 hours at 35° C. in aerobic conditions (first passage). For the second passage, fresh Mueller-Hinton broth is inoculated with 5-10 colonies and grown overnight at 35° C. until turbidity (reaching log-phase) in aerobic conditions is reached. The bacterial suspension is then adjusted to 0.5 McFarland density and further diluted 1:100 in Mueller Hinton broth medium. This is used as inoculum.
Antibacterial Susceptibility Testing: IC90 Determination
(§3) MIC assays were performed by the broth microdilution method in a 96-well format (flat-bottom microtitre plates) with a final volume of 0.1 ml Mueller Hinton broth containing two-fold serial dilutions of compounds and inoculated with 5×10^5 CFU/ml of bacteria (standard inoculum size according to CLSI guidelines). Inhibitors are typically varied over the range of 63 to 0.49 μM. The final DMSO concentration in the assay was 1.25% (maximum tolerable DMSO concentration=6%). In the assays where the effect of human serum on the activity of the compounds against S. aureus was tested, human serum was added at a final concentration of 10%. The plates were incubated at 35° C. for 16-20 hours. At the end of incubation the bacterial growth was quantified fluorometrically. For this, resazurin was added to all wells and the plates were re-incubated. The incubation time is dependent on the type of bacteria. A change in color from blue to pink indicated the growth of bacteria. The fluorescence was read in computer-controlled fluorometer (Fluoroskan Ascent FL, Labsystems) at an excitation wavelength 540 nm and an emission wavelength of 590 nm. The % growth inhibition achieved by the compounds was calculated according to standard methods. The IC90 (expressed in μg/ml) was defined as the 90% inhibitory concentration for bacterial growth. A panel of reference compounds were simultaneously tested for QC approval.

S. aureus = experiment: Antibacterial susceptibility testing, IC90 with 10% human serum (STA + 10% HS 361.169); format: cell-based, Staphylococcus aureus; conditions: S. aureus with 10% human serum
Description: as §1, §2, §3
The results are depicted in the table D2 below (STA+10% HS).

Human HelaM cells = experiment: Cytotoxicity MTT assay (TOX HELAM 222.125); format: cell-based; conditions: 72 hours
Description: Cytotoxicity of the compounds was evaluated using the MTT assay. Human HelaM cells grown in 96-well plates were exposed to serial dilutions of the tested compounds (final volume of 0.2 ml) and incubated for 72 hours at 37° C. and 5% CO2 Inhibitors are typically varied over the range of 25 to 0.8 μM. The final DMSO concentration in the assay is 0.5%. MTT (3-(4,5-Dimethylthiazol-2-yl)-2,5-diphenyltetrazolium bromide, a tetrazole) was added and reduced to purple formazan only in living cells. Solubilization of the formazan crystals was achieved by adding 100 μl 2-propanol. Cell viability was determined by measuring the absorbance of the reduced formazan, giving a purple color, at 540 nm and 690 nm. The absorbance measured at 690 nm was automatically subtracted from the absorbance at 540 nm, to eliminate the effects of non-specific absorption. The percent cytotoxicity achieved by the compounds was calculated according to standard methods. Cytotoxicity is reported as CC50, the concentration that causes a 50% reduction in cell viability.
The results are depicted in the table D2 below (TOX HELAM).

Compound | FabI IC50 [1] [µg/mL] | STA (361.159) IC90 [2] [µg/mL] | STA + 10% HS (361.169) IC90 (S. aureus) [µg/mL] | TOX HELAM (222.125) CC50 (Human HelaM cells) [µg/mL]
O=C1CCc2cc(/C=C/C(=O)N3CCC(CC4CCCS4)CC3)cnc2N1 (centres unmarked) [compound 36] | 0.61 | 8.43 | 11.38 | >9.684
CC1CN(C(=O)/C=C/c2cnc3c(c2)CCC(=O)N3)CC=C1c1ccccc1 (centres unmarked) [compound 27] | 0.57 | 6.13 | 21.99 | >9.381
COc1ccncc1C1=CCN(C(=O)/C=C/c2cnc3c(c2)CCC(=O)N3)CC1 [compound 20] | 0.78 | 13.23 | 16.85 | >9.808
O=C1CCc2cc(/C=C/C(=O)N3CC=C(c4ccoc4)CC3)cnc2N1 [compound 10] | 0.48 | 10.43 | 20.34 | >8.776
O=C1CCc2cc(/C=C/C(=O)N3CCC(CCOc4ccccc4)CC3)cnc2N1 [compound 29] | 1.00 | – | – | –
COc1ccccc1CC1=CCN(C(=O)/C=C/c2cnc3c(c2)CCC(=O)N3)CC1 [compound 14] | 1.06 | 6.93 | 13.06 | >10.1352
O=C1CCc2cc(/C=C/C(=O)N3CC=C(c4ccccc4Cl)CC3)cnc2N1 [compound 16] | 0.58 | 3.31 | 8.52 | 8.04
O=C1CCc2cc(/C=C/C(=O)N3CCC(Cc4ccc5ccccc5n4)CC3)cnc2N1 [compound 41] | 3.39 | – | – | –
COc1cccc(C2=CCN(C(=O)/C=C/c3cnc4c(c3)CCC(=O)N4)CC2)c1 [compound 22] | 0.93 | 21.16 | >24.5733 | >9.783
O=C1CCc2cc(/C=C/C(=O)N3CCC(Cn4cnnc4)CC3)cnc2N1 [compound 38] | >7.31 | – | – | –
O=C1CCc2cc(/C=C/C(=O)N3CCC(Cc4ccccn4)CC3)cnc2N1 [compound 35] | 0.48 | 5.14 | 3.94 | >9.456
O=C1CCc2cc(/C=C/C(=O)N3CCN(c4ccccc4)CC3)cnc2N1 [compound 25] | 1.48 | – | – | –
O=C1CCc2cc(/C=C/C(=O)N3CCC(Cc4ccccc4)CC3)cnc2N1 [compound 12] | 0.31 | 1.19 | 2.09 | >9.431
O=C1CCc2cc(/C=C/C(=O)N3CCN(Cc4ccccc4)CC3)cnc2N1 [compound 24] | 7.17 | – | – | –
COc1ccccc1C1=CCCN(C(=O)/C=C/c2cnc3c(c2)CCC(=O)N3)C1 [compound 21] | 0.80 | – | – | –
O=C1CCc2cc(/C=C/C(=O)N3CCCC(Oc4ccccc4)C3)cnc2N1 (centres unmarked) [compound 1] | 3.52 | – | – | –
O=C1CCc2cc(/C=C/C(=O)N3CCC(Cc4coc5cc(F)ccc45)CC3)cnc2N1 [compound 31] | 0.79 | – | – | –
O=C1CCc2cc(/C=C/C(=O)N3CC=CCC3)cnc2N1 [compound 15] | 3.57 | – | – | –
O=C1CCc2cc(/C=C/C(=O)N3CCC(C(=O)c4ccccc4)CC3)cnc2N1 [compound 6] | 1.74 | – | – | –

Compound | FabI IC50 [1] [µg/mL] | STA (361.159) IC90 [2] [µg/mL] | STA + 10% HS (361.169) IC90 (S. aureus) [µg/mL] | TOX HELAM (222.125) CC50 (Human HelaM cells) [µg/mL]
O=C1CCc2cc(/C=C/C(=O)N3CCc4ccccc4C3)cnc2N1 [compound 3] | 0.48 | 8.67 | 10.79 | >8.374
O=C1CCc2cc(/C=C/C(=O)N3CCC(Cn4cncn4)CC3)cnc2N1 [compound 40] | 1.43 | – | – | –
O=C1CCc2cc(/C=C/C(=O)N3CCC(O)(c4ccc(Cl)cc4)CC3)cnc2N1 [compound 11] | 0.80 | – | – | –
O=C1CCc2cc(/C=C/C(=O)N3CCC(CCOc4ccc(F)cc4)CC3)cnc2N1 [compound 30] | 1.34 | – | – | –
O=C1CCc2cc(/C=C/C(=O)N3CCC(Cn4ccc5ccccc54)CC3)cnc2N1 [compound 39] | 2.74 | – | – | –
O=C1CCc2cc(/C=C/C(=O)N3CC=C(c4ccc5c(c4)OCO5)CC3)cnc2N1 [compound 8] | 0.53 | – | – | –
O=C1CCc2cc(/C=C/C(=O)N3CC=C(c4cccnc4)CC3)cnc2N1 [compound 18] | 0.67 | – | – | –
O=C1CCc2cc(/C=C/C(=O)N3CC=C(c4cc5ccccc5o4)CC3)cnc2N1 [compound 17] | 1.91 | – | – | –
O=C1CCc2cc(/C=C/C(=O)N3CCC(COc4ccc(F)cc4)CC3)cnc2N1 [compound 34] | 0.47 | 9.94 | 12.51 | >10.2852
O=C1CCc2cc(/C=C/C(=O)N3CC=C(c4cccc(C(F)(F)F)c4)CC3)cnc2N1 [compound 19] | 1.12 | – | – | –
O=C1CCc2cc(/C=C/C(=O)N3CCC(Cc4nc5ccccc5s4)CC3)cnc2N1 [compound 32] | 1.72 | – | – | –
COc1ccc(C2=CCN(C(=O)/C=C/c3cnc4c(c3)CCC(=O)N4)CC2)cc1 [compound 23] | 0.85 | – | – | –
COc1ccccc1C1CCN(C(=O)/C=C/c2cnc3c(c2)CCC(=O)N3)CC1 [compound 13] | 0.53 | – | – | –
O=C1CCc2cc(/C=C/C(=O)N3CCC(c4ccccc4)CC3)cnc2N1 [compound 4] | 0.29 | 4.99 | 4.60 | >9.079
O=C1CCc2cc(/C=C/C(=O)N3CCCCC3)cnc2N1 [compound 26] | 2.73 | – | – | –
O=C1CCc2cc(/C=C/C(=O)N3CCC(c4cccc(O)c4)CC3)cnc2N1 [compound 5] | 0.35 | 10.52 | 11.14 | >9.481
COc1ccccc1C1=CCN(C(=O)/C=C/c2cnc3c(c2)CCC(=O)N3)CC1 [compound 2] | 0.32 | 1.97 | 2.99 | >9.783
O=C1CCc2cc(/C=C/C(=O)N3CCC(Oc4ccccc4)CC3)cnc2N1 [compound 28] | 0.93 | – | – | –
Cc1ccc(-c2ccccc2)n1CC1CCN(C(=O)/C=C/c2cnc3c(c2)CCC(=O)N3)CC1 [compound 42] | 10.18 | – | – | –
